Data: US11149040B2, “Fused triazole agonists of the APJ receptor” (AMGEN INC., priority 2017, dated 2021)

What follows are compounds tested against human APJ receptor (Homo sapiens (Human), UniProt P35414) (assay: [35S]GTPγS binding assay on membranes from CHO cells stably expressing human APJ receptor). Conditions: read-out: Activity hAPJ SPA EC50 IP.
Assay type: biochemical
Description: [^35S]GTPγS Binding The human APJ receptor was cloned by polymerase chain reaction and the gene encoding the receptor was subcloned in pFLAG-CMV™-3 expression vector (Sigma, Saint Louis, Mo. USA) in-house at Amgen. A GTPγS binding assay was performed on membranes prepared from CHO cells stably expressing human APJ receptor. The optimum experimental conditions for the concentrations of GDP, MgCl2, and NaCl in the assay buffer were initially determined. […] Incubation was at RT for 90 min and the microplate was read using a ViewLux™ ultra HTS Microplate Imager (PerkinElmer, Inc.). All the results presented are means of several independent experiments and analyzed by non-linear regression methods using the commercially available program Prism (GraphPad, San Diego, Calif.) providing the EC50 values detailed in Table 13.

Chain of human APJ receptor (P35414 whole entry): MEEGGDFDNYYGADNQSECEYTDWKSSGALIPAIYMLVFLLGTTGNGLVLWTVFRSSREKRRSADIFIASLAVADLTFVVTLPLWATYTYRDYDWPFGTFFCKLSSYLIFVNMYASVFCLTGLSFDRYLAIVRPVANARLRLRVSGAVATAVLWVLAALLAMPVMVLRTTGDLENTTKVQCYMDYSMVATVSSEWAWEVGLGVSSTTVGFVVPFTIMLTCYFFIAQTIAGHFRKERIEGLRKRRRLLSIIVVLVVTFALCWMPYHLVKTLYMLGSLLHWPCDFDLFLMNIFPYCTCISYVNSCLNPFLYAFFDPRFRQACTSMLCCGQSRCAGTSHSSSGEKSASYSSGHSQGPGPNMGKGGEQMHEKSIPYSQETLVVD

| Compound | EC50 |
| --- | --- |
| COC[C@@H]1COc2ccc(OC)nc2-c2nnc(NS(=O)(=O)[C@@H](C)[C@@H](OC(C)C)c3ncc(C)cn3)n21 (single isomer, unassigned) [Example 14.0, (1S,2S)-N-((5R)-10-methoxy-5-(methoxymethyl)-5,6-dihydropyrido[2,3-1][1,2,4]triazolo[4,3-d][1,4]oxazepin-3-yl)-1-(5-methyl-2-pyrimidinyl)-1-(2-propanyloxy)-2-propanesulfonamide or (1S,2S)-N-((5S)-10-methoxy-5-(methoxymethyl)-5,6-dihydropyrido[2,3-1][1,2,4]triazolo[4,3-d][1,4]oxazepin-3-yl)-1-(5-methyl-2-pyrimidinyl)-1-(2-propanyloxy)-2-propanesulfonamide] | 400 nM |
| COC[C@@H]1COc2ccc(OC)nc2-c2nnc(NS(=O)(=O)[C@@H](C)[C@@H](OC(C)C)c3ncc(C)cn3)n21 (single isomer, unassigned) [Example 15.0, (1S,2S)-N-((5R)-10-methoxy-5-(methoxymethyl)-5,6-dihydropyrido[2,3-f][1,2,4]triazolo[4,3-d][1,4]oxazepin-3-yl)-1-(5-methyl-2-pyrimidinyl)-1-(2-propanyloxy)-2-propanesulfonamide or (1S,2S)-N-((5S)-10-methoxy-5-(methoxymethyl)-5,6-dihydropyrido[2,3-f][1,2,4]triazolo[4,3-d][1,4]oxazepin-3-yl)-1-(5-methyl-2-pyrimidinyl)-1-(2-propanyloxy)-2-propanesulfonamide] | 37 nM |
| COc1ccc2c(n1)-c1nnc(NS(=O)(=O)[C@@H](C)[C@@H](OC(C)C)c3ncc(C)cn3)n1[C@H](CO)CO2 (single isomer, unassigned) [Example 18.0, (1S,2S)-N-((R)-5-(hydroxymethyl)-10-methoxy-5,6-dihydropyrido[2,3-f][1,2,4]triazolo[4,3-d][1,4]oxazepin-3-yl)-1-isopropoxy-1-(5-methylpyrimidin-2-yl)propane-2-sulfonamide or (1S,2S)-N-((S)-5-(hydroxymethyl)-10-methoxy-5,6-dihydropyrido[2,3-f][1,2,4]traizolo[4,3-d][1,4]oxazepin-3-yl)-1-isopropoxy-1-(5-methylpyrimidin-2-yl)propane-2-sulfonamide] | 640 nM |
| COc1ccc2c(n1)-c1nnc(NS(=O)(=O)[C@@H](C)[C@@H](OC(C)C)c3ncc(C)cn3)n1[C@H](CO)CO2 (single isomer, unassigned) [Example 19.0, (1S,2S)-N-((R)-5-(hydroxymethyl)-10-methoxy-5,6-dihydropyrido[2,3-f][1,2,4]triazolo[4,3-d][1,4]oxazepin-3-yl)-1-isopropoxy-1-(5-methylpyrimidin-2-yl)propane-2-sulfonamide or (1S,2S)-N-((S)-5-(hydroxymethyl)-10-methoxy-5,6-dihydropyrido[2,3-f][1,2,4]triazolo[4,3-d][1,4]oxazepin-3-yl)-1-isopropoxy-1-(5-methylpyrimidin-2-yl)propane-2-sulfonamide] | 990 nM |
| COC[C@@H]1COc2cc(F)c(F)cc2-c2nnc(NS(=O)(=O)[C@@H](C)[C@@H](OC(C)C)c3ncc(C)cn3)n21 (single isomer, unassigned) [Example 20.0, (1S,2S)-N-((5R)-9,10-difluoro-5-(methoxymethyl)-5,6-dihydro[1,2,4]triazolo[4,3-d][1,4]benzoxazepin-3-yl)-1-(5-methyl-2-pyrimidinyl)-1-(2-propanyloxy)-2-propanesulfonamide or (1S,2S)-N-((5S)-9,10-difluoro-5-(methoxymethyl)-5,6-dihydro[1,2,4]triazolo[4,3-d][1,4]benzoxazepin-3-yl)-1-(5-methyl-2-pyrimidinyl)-1-(2-propanyloxy)-2-propanesulfonamide] | 990 nM |
| COC[C@@H]1COc2cc(F)c(F)cc2-c2nnc(NS(=O)(=O)[C@@H](C)[C@@H](OC(C)C)c3ncc(C)cn3)n21 (single isomer, unassigned) [Example 21.0, (1S,2S)-N-((5R)-9,10-difluoro-5-(methoxymethyl)-5,6-dihydro[1,2,4]triazolo[4,3-d][1,4]benzoxazepin-3-yl)-1-(5-methyl-2-pyrimidinyl)-1-(2-propanyloxy)-2-propanesulfonamide or (1S,2S)-N-((5S)-9,10-difluoro-5-(methoxymethyl)-5,6-dihydro[1,2,4]triazolo[4,3-d][1,4]benzoxazepin-3-yl)-1-(5-methyl-2-pyrimidinyl)-1-(2-propanyloxy)-2-propanesulfonamide] | 3400 nM |
| COC[C@@H]1COc2ccc(F)cc2-c2nnc(NS(=O)(=O)[C@@H](C)[C@@H](OC(C)C)c3ncc(C)cn3)n21 (single isomer, unassigned) [Example 25.0, (1S,2S)-N-((5R)-10-fluoro-5-(methoxymethyl)-5,6-dihydro[1,2,4]traizolo[4,3-d][1,4]benzoxazepin-3-yl)-1-(5-methyl-2-pyrimidinyl)-1-(2-propanyloxy)-2-propanesulfonamide or (1S,2S)-N-((5S)-10-fluoro-5-(methoxymethyl)-5,6-dihydro[1,2,4]traizolo[4,3-d][1,4]benzoxazepin-3-yl)-1-(5-methyl-2-pyrimidinyl)-1-(2-propanyloxy)-2-propanesulfonamide] | 28 nM |
| COC[C@@H]1COc2ccc(F)cc2-c2nnc(NS(=O)(=O)[C@@H](C)[C@@H](OC(C)C)c3ncc(C)cn3)n21 (single isomer, unassigned) [Example 26.0, (1S,2S)-N-((5R)-10-fluoro-5-(methoxymethyl)-5,6-dihydro[1,2,4]triazolo[4,3-d][1,4]benzoxazepin-3-yl)-1-(5-methyl-2-pyrimidinyl)-1-(2-propanyloxy)-2-propanesulfonamide or (1S,2S)-N-((5S)-10-fluoro-5-(methoxymethyl)-5,6-dihydro[1,2,4]triazolo[4,3-d][1,4]benzoxazepin-3-yl)-1-(5-methyl-2-pyrimidinyl)-1-(2-propanyloxy)-2-propanesulfonamide] | 460 nM |
| COC[C@@H]1COc2ccc(F)cc2-c2nnc(NS(=O)(=O)[C@@H](C)[C@H](OC)c3ncc(C)cn3)n21 (single isomer, unassigned) [Example 27.0, (1R,2S)-N-((5R)-10-fluoro-5-(methoxymethyl)-5,6-dihydro[1,2,4]triazolo[4,3-d][1,4]benzoxazepin-3-yl)-1-methoxy-1-(5-methyl-2-pyrimidinyl)-2-propanesulfonamide or (1R,2S)-N-((5S)-10-fluoro-5-(methoxymethyl)-5,6-dihydro[1,2,4]triazolo[4,3-d][1,4]benzoxazepin-3-yl)-1-methoxy-1-(5-methyl-2-pyrimidinyl)-2-propanesulfonamide] | 490 nM |
| COC[C@@H]1COc2ccc(F)cc2-c2nnc(NS(=O)(=O)[C@@H](C)[C@H](OC)c3ncc(C)cn3)n21 (single isomer, unassigned) [Example 28.0, (1R,2S)-N-((5R)-10-fluoro-5-(methoxymethyl)-5,6-dihydro[1,2,4]triazolo[4,3-d][1,4]benzoxazepin-3-yl)-1-methoxy-1-(5-methyl-2-pyrimidinyl)-2-propanesulfonamide or (1R,2S)-N-((5S)-10-fluoro-5-(methoxymethyl)-5,6-dihydro[1,2,4]triazolo[4,3-d][1,4]benzoxazepin-3-yl)-1-methoxy-1-(5-methyl-2-pyrimidinyl)-2-propanesulfonamide] | 170 nM |
| COC[C@@H]1COc2ncccc2-c2nnc(NS(=O)(=O)CCc3ncc(C)cn3)n21 (single isomer, unassigned) [Example 34.0, N-((5R)-5-(methoxymethyl)-5,6-dihydropyrido[3,2-f][1,2,4]triazolo[4,3-d][1,4]oxazepin-3-yl)-2-(5-methyl-2-pyrimidinyl)ethanesulfonamide or N-((5S)-5-(methoxymethyl)-5,6-dihydropyrido[3,2-f][1,2,4]triazolo[4,3-d][1,4]oxazepin-3-yl)-2-(5-methyl-2-pyrimidinyl)ethanesulfonamide] | 180 nM |
| COC[C@@H]1COc2c(OC)cccc2-c2nnc(NS(=O)(=O)[C@@H](C)[C@@H](OC(C)C)c3ncc(C)cn3)n21 (single isomer, unassigned) [Example 38.0, (1S,2S)-N-((5R)-8-methoxy-5-(methoxymethyl)-5,6-dihydro[1,2,4]traizolo[4,3-d][1,4]benzoxazepin-3-yl)-1-(5-methyl-2-pyrimidinyl)-1-(2-propanyloxy)-2-propanesulfonamide or (1S,2S)-N-((5S)-8-methoxy-5-(methoxymethyl)-5,6-dihydro[1,2,4]triazolo[4,3-d][1,4]benzoxazepin-3-yl)-1-(5-methyl-2-pyrimidinyl)-1-(2-propanyloxy)-2-propanesulfonamide] | 64 nM |
| COC[C@@H]1COc2c(OC)cccc2-c2nnc(NS(=O)(=O)[C@@H](C)[C@@H](OC(C)C)c3ncc(C)cn3)n21 (single isomer, unassigned) [Example 39.0, (1S,2S)-N-((5R)-8-methoxy-5-(methoxymethyl)-5,6-dihydro[1,2,4]traizolo[4,3-d][1,4]benzoxazepin-3-yl)-1-(5-methyl-2-pyrimidinyl)-1-(2-propanyloxy)-2-propanesulfonamide or (1S,2S)-N-((5S)-8-methoxy-5-(methoxymethyl)-5,6-dihydro[1,2,4]traizolo[4,3-d][1,4]benzoxazepin-3-yl)-1-(5-methyl-2-pyrimidinyl)-1-(2-propanyloxy)-2-propanesulfonamide] | 8 nM |
| COC[C@@H]1COc2ncccc2-c2nnc(NS(=O)(=O)[C@@H](C)[C@@H](OC(C)C)c3ncc(C)cn3)n21 (single isomer, unassigned) [Example 40.0] | 86 nM |
